Usually IC50 stands for the concentration needed to halve the response being measured.

We go through 8 molecules from patent US11090304B2 (Amgen Inc., priority 2018, dated 2021).

Assay [1] has as its system Phosphorylation of ERK1/2 in A549 cells. As to the kind of experiment: Phospho-ERK1/2 MSD assay in A549 cells. Particulars: Homo sapiens. Format: cell-based. In outline:
(§1)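 MIA PaCa-2 or A549 cells were treated with a compound dose-response titration for 2 or 4 h at 37 °C, then stimulated with 10 ng/mL EGF for 10 min. Phospho-ERK1/2 in RIPA lysates was measured by MSD whole-cell lysate immunoassay, and IC50 came from a 4-parameter logistic fit.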

The target of assay [2] is GDP-bound KRAS protein (aa 1-169), containing both G12C and C118A amino acid substitutions (Homo sapiens, UniProt P01116, C118A/G12C). The experiment in a line: Coupled nucleotide exchange assay (SOS-mediated, AlphaScreen). The assay is classed as biochemical. Particulars: for Coupled exchange IC50 (5 min): 5 min compound pre-incubation; for Coupled exchange IC50 (2 h): 2 h compound pre-incubation. Background: In Alpha technology, singlet oxygen from a donor bead excites a nearby acceptor bead.

Assay [3] concerns Phosphorylation of ERK1/2 in MIA PaCa-2 cells. The experiment in a line: Phospho-ERK1/2 MSD assay in MIA PaCa-2 cells. Format: cell-based. Particulars: Homo sapiens. In outline: as §1
The mark [4] stands for this setting: A549, 2 h, read-out: p-ERK IC50 (2 h; A549), 2 h compound treatment.
Where [5] appears, read: A549, 4 h, read-out: p-ERK IC50 (4 h; A549), 4 h compound treatment.
[6] abbreviates: MIA PaCa-2, 2 h, read-out: p-ERK IC50 (2 h; MIA PaCa-2), 2 h compound treatment.
Where [7] appears, read: MIA PaCa-2, 4 h, read-out: p-ERK IC50 (4 h; MIA PaCa-2), 4 h compound treatment.

Each structure is given as a SMILES string. Where two headings read alike, the source gives them in different places. Some results are limits rather than exact numbers.

GDP-bound KRAS protein (aa 1-169), containing both G12C and C118A amino acid substitutions, sequence (P01116 1-169 isoform P01116-2 G12C/C118A): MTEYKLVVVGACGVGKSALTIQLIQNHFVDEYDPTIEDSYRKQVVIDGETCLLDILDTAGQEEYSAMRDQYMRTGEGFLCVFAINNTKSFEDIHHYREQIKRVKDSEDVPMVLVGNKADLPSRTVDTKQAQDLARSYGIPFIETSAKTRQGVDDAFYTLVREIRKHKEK

Regarding `C=CC(=O)N1CCN(c2nc(=O)n(C(CC)CC)c3nc(-c4c(C)ccc5[nH]ncc45)c(Cl)cc23)[C@@H](C)C1` [Example 60-32, 6-chloro-7-(5-methyl-1H-indazol-4-yl)-4-((2S)-2-methyl-4-(2-propenoyl)-1-piperazinyl)-1-(3-pentanyl)pyrido[2,3-d]pyrimidin-2(1H)-one], the IC50 in assay [1] (setting [4]) was found to be 87400 nM; in assay [1] (setting [5]), 63900 nM; in assay [3] (setting [6]), 221 nM; in assay [3] (setting [7]), 213 nM. Besides, in assay [2], the “Coupled exchange IC50 (5 min)” value worked out at 0.392 µM. In addition, in assay [2], the “Coupled exchange IC50 (2 h)” value amounted to 157 nM.
As to `C=CC(=O)N1CCN(c2nc(=O)n(CC(C)(C)C(F)(F)F)c3nc(-c4ccccc4F)c(Cl)cc23)[C@@H](C)C1` [Example 60-33, 6-chloro-7-(2-fluorophenyl)-4-((2S)-2-methyl-4-(2-propenoyl)-1-piperazinyl)-1-(3,3,3-trifluoro-2,2-dimethylpropyl)pyrido[2,3-d]pyrimidin-2(1H)-one], in assay [1] (setting [4]), the IC50 is no less than 100000 nM. In assay [2], the “Coupled exchange IC50 (5 min)” value was found to be 1.24 µM and the “Coupled exchange IC50 (2 h)” value came out at 139 nM. Also, the IC50 in assay [3] (setting [6]) stood at 1700 nM.
As to `C=CC(=O)N1CCN(c2nc(=O)n(CC(C)(C)C(F)(F)F)c3nc(-c4c(C)ccc5[nH]ncc45)c(Cl)cc23)[C@@H](C)C1` [Example 60-34, 6-chloro-7-(5-methyl-1H-indazol-4-yl)-4-((2S)-2-methyl-4-(2-propenoyl)-1-piperazinyl)-1-(3,3,3-trifluoro-2,2-dimethylpropyl)pyrido[2,3-d]pyrimidin-2(1H)-one], the IC50 in assay [1] (setting [4]) is no less than 10000 nM; in assay [3] (setting [6]), 508 nM. Moreover, in assay [2], the “Coupled exchange IC50 (5 min)” value is recorded as 0.478 | nda μM.
Take `C=CC(=O)N1CCN(c2nc(=O)n(-c3ccccc3C(C)C)c3nc(Cl)c(Cl)cc23)[C@@H](C)C1` [Example 61-1, 6,7-Dichloro-4-((2S)-2-methyl-4-(2-propenoyl)-1-piperazinyl)-1-(2-(2-propanyl)phenyl)pyrido[2,3-d]pyrimidin-2(1H)-one]: the IC50 in assay [1] (setting [4]) is no less than 100000 nM; in assay [1] (setting [5]) it was no less than 11100 nM; in assay [3] (setting [6]), 2480 nM; in assay [3] (setting [7]), 992 nM. For the same molecule, in assay [2], the “Coupled exchange IC50 (2 h)” value is recorded as “nda | 0.776 μM”.
As for `C=CC(=O)N1CCN(c2nc(=O)n(-c3ccncc3C3CC3)c3cc(-c4c(O)cccc4F)c(Cl)cc23)[C@@H](C)C1` [Example 62-3, 6-chloro-1-(3 cyclopropyl-4-pyridinyl)-7-(2-fluoro-6-hydroxyphenyl)-4-((2S)-2-methyl-4-(2-propenoyl)-1-piperazinyl)-2(1H)-quinazolinone], the IC50 in assay [1] (setting [4]) was no less than 10000 nM; in assay [3] (setting [6]) it was 845 nM. Moreover, the “Coupled exchange IC50 (5 min)” value in assay [2] was 0.147 | nda μM.
`C=CC(=O)N1CCN(c2nc(=O)n(-c3ccccc3C(C)C)c3nc(N4CCC4)c(Cl)cc23)[C@@H](C)C1` [Example 69-2, 7-(1-azetidinyl)-6-chloro-4-((2S)-2-methyl-4-(2-propenoyl)-1-piperazinyl)-1-(2-(2-propanyl)phenyl)pyrido[2,3-d]pyrimidin-2(1H)-one]: the figures for the IC50 in assay [1] (setting [4]) and in assay [3] (setting [6]) were no less than 33300 nM and 1310 nM, respectively. The “Coupled exchange IC50 (2 h)” value in assay [2] was “nda | 0.511 μM”.
`C=CC(=O)N1CCN(c2nc(=O)n(-c3nccn3C(C)C)c3cc(-c4ccccc4F)c(Cl)cc23)[C@@H](C)C1` [Example 91, 6-Chloro-7-(2-fluorophenyl)-4-((2S)-2-methyl-4-(2-propenoyl)-1-piperazinyl)-1-(1-(2-propanyl)-1H-imidazol-2-yl)-2(1H)-quinazolinone]: the IC50 in assay [1] (setting [4]) was no less than 10000 nM; in assay [3] (setting [6]), 312 nM. Besides, the “Coupled exchange IC50 (5 min)” value in assay [2] is on record as 0.2 | nda μM.
On to `CC(C)c1ccccc1-n1c(=O)nc(N2CCN(C(=O)/C=C/CN(C)C)CC2)c2cc(Cl)c(-c3c(O)cccc3F)cc21` [Example 92, 6-Chloro-4-(4-((2E)-4-(dimethylamino)-2-butenoyl)-1-piperazinyl)-7-(2-fluoro-6-hydroxyphenyl)-1-(2-(2-propanyl)phenyl)-2(1H)-quinazolinone], for which the IC50 was found to be 108000 nM in assay [1] (setting [5]) and 1550 nM in assay [3] (setting [7]). For the same molecule, the “Coupled exchange IC50 (2 h)” value in assay [2] is “nda | 0.123 μM”.
